Legend:
Assay type in all cases: ADME, organism-based
[1] = Volume of distribution at steady state in rat at 1 mg/kg, iv and 2 mg/kg, po; conditions: in vivo, read-out: Vdss
[2] = Cmax in rat at 2 mg/kg, po; parameters: dose 2 mg/kg, route oral; conditions: in vivo
[3] = Oral bioavailability in rat at 2 mg/kg; conditions: in vivo

Compound | Vd [1] | Cmax [2] | bioavailability [3]
CN(C)CCOc1cc(-c2cn[nH]c2)ccc1NC(=O)C1COc2ccc(F)cc2C1 (centres undefined) | 5.9 L/kg | 100 nM | 27%
COc1ccc2c(c1)CC(C(=O)Nc1ccc(-c3cn[nH]c3)cc1OCCN(C)C)CO2 (centres undefined) | 1.7 L/kg | 320 nM | 35%
CN(C)CCOc1cc(-c2cn[nH]c2)ccc1NC(=O)C1COc2ccccc2C1 (centres undefined) | 4.6 L/kg | 170 nM | 33%
